Assay results from US20260294890A1, “LONG-TERM PREVENTION AND/OR TREATMENT OF A DISEASE BY SLO-1 INHIBITORS” (Elanco Animal Health GmbH, priority 2023, published 2026).

Experiments:
[1] = Assay 1: half-life and plasma clearance upon intravenous administration to beagle dogs; assay type: in vivo; conditions: iv dose up to 0.3 mg/kg, Phoenix PK/PD (Example 1: internal tool); for clearance / half-life: dog, geometric mean; for half-life: read-out: Half-life (h/Form) iv, geometric mean (converted)
Protocol: Assay 1: Determination of Half-Life and Plasma Clearance of Compounds of the Invention Upon Administration to Beagle Dogs
Compounds according to the invention were administered as an intravenous (iv) dose (up to 0.3 mg/kg) to beagle dogs (minimum n=3). Blood samples were collected from these beagle dogs up to 168 h after intravenous administration and up to 3024 h after subcutaneous administration. A portion of each whole blood sample was processed to plasma. Compound concentrations were determined in plasma using LCMS/MS. Phoenix™ Pharmacokinetic and Pharmacodynamic (PK/PD) was used to determine half-life and plasma clearance values. Only for Example 1, an internal tool available to the inventors was used to determine the half-life and plasma clearance values.

Dirofilaria immitis [2] = assay: Assay 2: prevention test, Dirofilaria immitis heartworm infection in dogs (modified Knott and heartworm antigen tests)
Ancylostoma caninum [3] = assay: Assay 3: residual efficacy against hookworm infection in dogs (cohorts B and C); assay type: in vivo; conditions: for % Reduction of Mean Fecal Egg Count / % Reduction of Mean Number of Recovered Hookworms: vs control; for Mean Number of Recovered Hookworms: after final FEC
Protocol: (§1) 12 dogs were allocated to one of six groups in three cohorts. Each cohort comprised a negative control group (n=2) (‘Control group’) and a group (n=2) treated with the compound of Example 9 (‘Treatment group’).
(§2) Dogs in negative control groups were administered an equivalent volume of vehicle solution.
(§3) All dogs were infected with 100-300 hookworm (Ancylostoma caninum) 3rd-stage larvae (L3s) via oral gavage (W.A.A.V.P. Guidelines, First edition; Jacobs, D. E., A. Arakawa, C. H. Courtney, et al., 1994. Vet. Parasitol. 52: 179-202). The cohorts were treated as follows: • Cohort A: The compound of Example 9 or the vehicle solution was administered 15 days after infection with Ancylostoma caninum • Cohort B: The compound of Example 9 or the vehicle solution was administered 30 days prior to infection with Ancylostoma caninum • Cohort C: The compound of Example 9 or the vehicle solution was administered 60 days prior to infection with Ancylostoma caninum
(§4) Fecal egg counts (FECs, eggs per gram of feces) were obtained from each dog 15, 20, 25 and 30 days after hookworm infection.
(§5) Following the final FEC, dogs were dewormed with a commercial anthelmintic and feces were collected for 48 hours. Fecal output from each dog was soaked in water for a minimum of 30 minutes and processing through 250 μm, 150 μm and 38 μm sieves to recover expelled adult and immature hookworms. Expelled hookworms were preserved in fixative (5% formalin) and counted.

Ancylostoma caninum [4] = assay: Assay 3: treatment of an existing hookworm infection in dogs (cohort A); assay type: in vivo; conditions: 30 mg/kg subcutaneous 15 days after infection
Protocol: as §1, §2, §3, §4, §5
Cohort A was designed to evaluate effectiveness against patent adult hookworm infections present at the time of treatment with the compound of Example 9.

Dirofilaria immitis [5] = assay: Assay 2: residual protection test, second Dirofilaria immitis infection of dogs 90 days after treatment
[6] = cohort B, 30 mg/kg subcutaneous 30 days prior to infection, 15 days after infection
[7] = cohort B, 30 mg/kg subcutaneous 30 days prior to infection, 20 days after infection
[8] = cohort B, 30 mg/kg subcutaneous 30 days prior to infection, 25 days after infection
[9] = cohort B, 30 mg/kg subcutaneous 30 days prior to infection, 30 days after infection
[10] = cohort B, 30 mg/kg subcutaneous 30 days prior to infection
[11] = cohort C, 30 mg/kg subcutaneous 60 days prior to infection, 15 days after infection
[12] = cohort C, 30 mg/kg subcutaneous 60 days prior to infection, 20 days after infection
[13] = cohort C, 30 mg/kg subcutaneous 60 days prior to infection, 25 days after infection
[14] = cohort C, 30 mg/kg subcutaneous 60 days prior to infection, 30 days after infection
[15] = cohort C, 30 mg/kg subcutaneous 60 days prior to infection

For `CCc1c(C(=O)N[C@H]2CCOc3ccccc32)cnc2c(-c3cc(F)cc(F)c3F)c(F)ccc12` [Example 1, N-[(4S)-3,4-Dihydro-2H-chromen-4-yl]-4-ethyl-7-fluoro-8-(2,3,5-trifluorophenyl)quinoline-3-carboxamide], the clearance ([1]; plasma) was 10 mL/min/kg and the half-life ([1]; plasma) was 52 h.
In the case of `O=C(N[C@H]1CCOc2ccccc21)c1cnc2c(-c3cc(Cl)cc(Cl)c3)c(F)ccc2c1N1CC(F)C1` [Example 5, (S)—N-(chroman-4-yl)-8-(3,5-dichlorophenyl)-7-fluoro-4-(3-fluoroazetidin-1-yl)quinoline-3-carboxamide], the clearance ([1]; plasma) is reported as 1.17 mL/min/kg and the half-life ([1]; plasma) is reported as 160 h.
With `Cc1nn2c(C(C)C)c(C(=O)N[C@H]3CCOc4ccccc43)cnc2c1-c1ccc(F)c(F)c1` [Example 3, (S)—N-(chroman-4-yl)-3-(3,4-difluorophenyl)-7-isopropyl-2-methylpyrazolo[1,5-a]pyrimidine-6-carboxamide] the clearance ([1]; plasma) was 3 mL/min/kg and the half-life ([1]; plasma) was 37.4 h.
With `O=C(N[C@H]1CCOc2ccccc21)c1cnc2c(-c3cc(F)cc(F)c3F)c(F)ccc2c1C1CS(=O)(=O)C1` [Example 8, N-[(4S)-3,4-dihydro-2H-chromen-4-yl]-4-(1,1-dioxidothietan-3-yl)-7-fluoro-8-(2,3,5-trifluorophenyl)quinoline-3-carboxamide] the clearance ([1]; plasma) was 11.5 mL/min/kg and the half-life ([1]; plasma) was 43.6 h.
For `O=C(N[C@H]1CCOc2ccccc21)c1cnc2c(-c3cc(F)cc(F)c3F)c(F)ccc2c1[C@H]1C[C@H](F)C1` [Example 9, N—((S)-chroman-4-yl)-7-fluoro-4-((1R,3S)-3-fluorocyclobutyl)-8-(2,3,5-trifluorophenyl)quinoline-3-carboxamide], the “dogs with positive test results in the modified Knott and heartworm antigen tests” value (Dirofilaria immitis [2]; 30 mg/kg subcutaneous 90 days after infection, 150, 180 and 210 days after infection) was “None of the dogs”, the “effectiveness at preventing the development of patent adult heartworm” value (Dirofilaria immitis [2]; dogs, 30 mg/kg subcutaneous, administered 90 days after experimental infection) was 100% and the “Mean Fecal Egg Count” value (Ancylostoma caninum [3]; [6]) was 0 EPG. The “% Reduction of Mean Fecal Egg Count” value (Ancylostoma caninum [3]; [6]) was 100%, the “Mean Fecal Egg Count” value (Ancylostoma caninum [3]; [7]) was 0 EPG and the “% Reduction of Mean Fecal Egg Count” value (Ancylostoma caninum [3]; [7]) was 100%. The “Mean Fecal Egg Count” value (Ancylostoma caninum [3]; [8]) was 0 EPG, the “% Reduction of Mean Fecal Egg Count” value (Ancylostoma caninum [3]; [8]) was 100% and the “Mean Fecal Egg Count” value (Ancylostoma caninum [3]; [9]) was 0 EPG. For the same compound, the “% Reduction of Mean Fecal Egg Count” value (Ancylostoma caninum [3]; [9]) was 100%, the “Mean Number of Recovered Hookworms” value (Ancylostoma caninum [3]; [10]) was 0 and the “% Reduction of Mean Number of Recovered Hookworms” value (Ancylostoma caninum [3]; [10]) was 100%. The “Mean Fecal Egg Count” value (Ancylostoma caninum [3]; [11]) was 0 EPG, the “% Reduction of Mean Fecal Egg Count” value (Ancylostoma caninum [3]; [11]) was 100% and the “Mean Fecal Egg Count” value (Ancylostoma caninum [3]; [12]) was 0 EPG. The “% Reduction of Mean Fecal Egg Count” value (Ancylostoma caninum [3]; [12]) was 100%, the “Mean Fecal Egg Count” value (Ancylostoma caninum [3]; [13]) was 0 EPG and the “% Reduction of Mean Fecal Egg Count” value (Ancylostoma caninum [3]; [13]) was 100%. For the same compound, the “Mean Fecal Egg Count” value (Ancylostoma caninum [3]; [14]) was 0 EPG, the “% Reduction of Mean Fecal Egg Count” value (Ancylostoma caninum [3]; [14]) was 100% and the “Mean Number of Recovered Hookworms” value (Ancylostoma caninum [3]; [15]) was 0. For the same compound, the “% Reduction of Mean Number of Recovered Hookworms” value (Ancylostoma caninum [3]; [15]) was 100%, the “duration of 100% protection from infections with hookworm larvae” value (Ancylostoma caninum [3]; cohorts B and C, 30 mg/kg subcutaneous) was “at least 60 days” and the “protection from infections with hookworm larvae” value (Ancylostoma caninum [3]; cohorts B and C, 30 mg/kg subcutaneous, FECs and expelled worm counts, for at least 60 days) was 100%. For the same compound, the clearance ([1]; plasma) was 1.17 mL/min/kg, the half-life ([1]; plasma) was 190 h and the “Fecal egg count reduction upon treatment” value (Ancylostoma caninum [4]) was > 90%. The “Mean Fecal Egg Count” value (Ancylostoma caninum [4]; 15 days after infection) was 0 EPG, the “% Reduction of Mean Fecal Egg Count” value (Ancylostoma caninum [4]; 15 days after infection, vs control) was 100% and the “Mean Fecal Egg Count” value (Ancylostoma caninum [4]; 20 days after infection) was 0 EPG. For the same compound, the “% Reduction of Mean Fecal Egg Count” value (Ancylostoma caninum [4]; 20 days after infection, vs control) was 100%, the “Mean Fecal Egg Count” value (Ancylostoma caninum [4]; 25 days after infection) was 25 EPG and the “% Reduction of Mean Fecal Egg Count” value (Ancylostoma caninum [4]; 25 days after infection, vs control) was 93.75%. The “Mean Fecal Egg Count” value (Ancylostoma caninum [4]; 30 days after infection) was 0 EPG, the “% Reduction of Mean Fecal Egg Count” value (Ancylostoma caninum [4]; 30 days after infection, vs control) was 100% and the “Mean Number of Recovered Hookworms” value (Ancylostoma caninum [4]; after final FEC) was 0.0. The “% Reduction of Mean Number of Recovered Hookworms” value (Ancylostoma caninum [4]; vs control) was 100%, the “dogs with a positive heartworm antigen test result” value (Dirofilaria immitis [5]; 30 mg/kg subcutaneous 90 days before second infection, 149 days after second infection) was 50% and the “residual protection from infection with Dirofilaria immitis” value (Dirofilaria immitis [5]; dogs, 30 mg/kg subcutaneous prior to second infection) was “significant residual protection”. For the same compound, the “reduction in worm burden in the heart and lungs relative to the negative control group” value (Dirofilaria immitis [5]; dogs, 30 mg/kg subcutaneous prior to second infection, necropsy approx. 5 months after infection, all dogs) was > 80%.
In the case of “(S)—N-(2,3-Dihydro-1H-inden-1-yl)-3-(3-fluorophenyl)-7-isopropyl-2-methylpyrazolo[1,5-a]pyrimidine-6-carboxamide [Example 13]”, the “Plasma Clearance, geometric mean” value [1] is reported as 9.33 mL/min/kg and the “Half-life (h/Form) iv, geometric mean” value ([1]; plasma) is reported as 45.43 h.
For `Cc1nn2c(C(C)C)c(C(=O)N[C@H]3CCOc4ccccc43)cnc2c1-c1c(F)cccc1Cl` [Example 10, (S)-3-(2-chloro-6-fluorophenyl)-N-(chroman-4-yl)-7-isopropyl-2-methylpyrazolo[1,5-a]pyrimidine-6-carboxamide], the clearance ([1]; plasma) was 6.17 mL/min/kg and the half-life ([1]; plasma) was 24.7 h.
Work on `O=C(N[C@H]1CCOc2ccccc21)c1cnc2c(-c3cc(F)cc(F)c3F)cccc2c1C1COC1` [Example 11, (S)—N-(chroman-4-yl)-4-(oxetan-3-yl)-8-(2,3,5-trifluorophenyl)quinoline-3-carboxamide] yielded a clearance ([1]; plasma) of 5 mL/min/kg and a half-life ([1]; plasma) of 47.8 h.
With `Cc1nn2c(C(C)C)c(C(=O)N[C@H]3CCc4ccccc43)cnc2c1-c1cc(Cl)c(F)c(Cl)c1` [Example 2, (S)-3-(3,5-dichloro-4-fluorophenyl)-N-(2,3-dihydro-1H-inden-1-yl)-7-isopropyl-2-methylpyrazolo[1,5-a]pyrimidine-6-carboxamide] the clearance ([1]; plasma) was 2.33 mL/min/kg and the half-life ([1]; plasma) was 19 h.
`O=C(N[C@H]1CCOc2ccccc21)c1cnc2c(-c3cc(F)cc(F)c3F)cccc2c1C1CCOCC1` [Example 12, N-[(4S)-3,4-Dihydro-2H-chromen-4-yl]-4-(tetrahydro-2H-pyran-4-yl)-8-(2,3,5-trifluorophenyl)quinoline-3-carboxamide] showed a clearance ([1]; plasma) of 17 mL/min/kg and a half-life ([1]; plasma) of 21.4 h.
With `O=C(N[C@H]1CCOc2ccccc21)c1cnc2c(-c3cc(F)cc(F)c3F)c(F)ccc2c1C1CCOCC1` [Example 14] the clearance ([1]; plasma) was 3 mL/min/kg and the half-life ([1]; plasma) was 43.4 h.
